Assay [1] addresses T1, μ-opioid receptor (Homo sapiens, UniProt P35372). Nature of the assay: μ-opioid receptor [35S]GTPγS functional assay, HEK-293 or CHO cells.
The target in assay [2] is T1, μ-opioid receptor. Nature of the assay: μ-opioid receptor [35S]GTPγS functional assay, U-2 OS cells. As to conditions: for Emax / GTPγS μ Emax: relative to DAMGO. Also noted: expressed in transfected cells; host or cells: U-2 OS. Type of assay: biochemical.
For a further assay, the target named is κ opioid receptor (Homo sapiens, UniProt P41145). Put plainly: κ-opioid receptor [35S]GTPγS functional assay, U-2 OS cells. Type of assay: biochemical. As to conditions: for Emax: read-out: GTPγS κ Emax. Also noted: expressed in transfected cells; host or cells: U-2 OS (in-house membranes).
The mark [3] stands for this setting: U-2 OS cells, read-out: GTPγS μ EC50.
Setting [4] is: U-2 OS cells, read-out: GTPγS μ Emax.
Setting [5] is: U-2 OS cells, read-out: GTPγS κ EC50.
[6] abbreviates: U-2 OS cells, bound in μM, read-out: GTPγS μ EC50.
The mark [7] stands for this setting: U-2 OS cells, bound in μM, read-out: GTPγS κ EC50.
[8] abbreviates: U-2 OS cells, relative to U69,593.

SMILES strings stand for the structures. Where two headings read alike, the source gives them in different places.

Sequence of κ opioid receptor (P41145 whole entry): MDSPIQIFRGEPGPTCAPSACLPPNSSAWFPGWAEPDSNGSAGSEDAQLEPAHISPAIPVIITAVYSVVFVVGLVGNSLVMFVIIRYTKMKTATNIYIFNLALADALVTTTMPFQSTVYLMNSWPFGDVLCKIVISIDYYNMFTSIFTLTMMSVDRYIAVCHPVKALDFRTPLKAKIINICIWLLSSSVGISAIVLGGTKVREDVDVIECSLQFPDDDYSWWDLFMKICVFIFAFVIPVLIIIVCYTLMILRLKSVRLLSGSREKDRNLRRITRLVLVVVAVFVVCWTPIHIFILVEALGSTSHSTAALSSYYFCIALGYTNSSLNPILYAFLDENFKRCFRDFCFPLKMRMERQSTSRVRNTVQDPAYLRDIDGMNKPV
T1 sequence (P35372 whole entry, species assumed): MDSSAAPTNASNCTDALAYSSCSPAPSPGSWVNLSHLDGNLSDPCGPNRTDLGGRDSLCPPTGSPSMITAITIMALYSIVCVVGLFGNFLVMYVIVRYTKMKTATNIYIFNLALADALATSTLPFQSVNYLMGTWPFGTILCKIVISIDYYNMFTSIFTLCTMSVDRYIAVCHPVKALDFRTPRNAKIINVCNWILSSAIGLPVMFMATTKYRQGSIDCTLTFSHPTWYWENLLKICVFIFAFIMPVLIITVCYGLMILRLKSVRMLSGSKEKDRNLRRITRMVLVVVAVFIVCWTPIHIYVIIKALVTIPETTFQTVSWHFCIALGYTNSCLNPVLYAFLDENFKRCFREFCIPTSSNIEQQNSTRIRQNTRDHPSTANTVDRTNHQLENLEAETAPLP

In the case of `COc1ccc2c(c1)[C@@]1(C)CCN(C)C(C2)C1N1CCC(N)CC1` (stereo partly drawn) [Compound 70, 1-((6R)-8-methoxy-3,6-dimethyl-1,2,3,4,5,6-hexahydro-2,6-methanobenzo[d]azocin-11-yl)piperidin-4-amine], on μ-opioid receptor [1], the midpoint of the response, the EC50, lay at 9380 ± 501 nM. Also, the Emax at μ-opioid receptor [1] (read-out: GTPγS μ Emax) was 24.7 ± 0.88%.
For the compound `C[C@]12CCN(CC3CC3)[C@H](Cc3ccc(O)cc31)[C@@H]2NCCc1ccc(S(N)(=O)=O)cc1` [Compound 96, 4-(2-(((2R,6S,11R)-3-(cyclopropylmethyl)-8-hydroxy-6-methyl-1,2,3,4,5,6-hexahydro-2,6-methanobenzo[d]azocin-11-yl)amino)ethyl)benzenesulfonamide], the EC50 on μ-opioid receptor [2] (setting [3]) is 0.00601 ± 0.00051 µM; on κ opioid receptor (setting [5]) it was 6.41 ± 1.67 nM. Besides, the Emax at μ-opioid receptor [2] (setting [4]) stood at 32.3 ± 0.88%.
Turning to `C[C@]12CCN(CC3CC3)[C@H](Cc3ccc(O)cc31)[C@H]2NCCc1ccc(S(N)(=O)=O)cc1` [Compound 97, 4-(2-(((2R,6S,11S)-3-(cyclopropylmethyl)-8-hydroxy-6-methyl-1,2,3,4,5,6-hexahydro-2,6-methanobenzo[d]azocin-11-yl)amino)ethyl)benzenesulfonamide], the EC50 at μ-opioid receptor [2] (setting [6]) was greater than 20 µM; at κ opioid receptor (setting [7]), greater than 20000 nM. Besides, the Emax amounted to 2.5% on μ-opioid receptor [2] (setting [4]) and 0% at κ opioid receptor (setting [8]).
As to `CN1CC[C@@]2(C)c3cc(O)ccc3C[C@@H]1[C@@H]2NCCc1ccc(Cl)c(Cl)c1` [Compound 98, (2R,6S,11R)-11-((3,4-dichlorophenethyl)amino)-3,6-dimethyl-1,2,3,4,5,6-hexahydro-2,6-methanobenzo[d]azocin-8-ol], the results for the EC50 at μ-opioid receptor [2] (setting [3]) and at κ opioid receptor (setting [5]) were 0.0003 ± 2.7e-05 µM and 28.6 ± 3.21 nM, respectively. Further, the Emax at μ-opioid receptor [2] (setting [4]) was found to be 104 ± 3.76%; at κ opioid receptor (setting [8]) it was 95.3 ± 3.84%.
For `CN1CC[C@@]2(C)c3cc(O)ccc3C[C@@H]1[C@H]2NCCc1ccc(Cl)c(Cl)c1` [Compound 99, (2R,6S,11S)-11-((3,4-dichlorophenethyl)amino)-3,6-dimethyl-1,2,3,4,5,6-hexahydro-2,6-methanobenzo[d]azocin-8-ol], the EC50 on μ-opioid receptor [2] (setting [3]) was 0.00013 ± 1e-05 µM; on κ opioid receptor (setting [5]), 1.44 ± 0.053 nM. Moreover, the Emax at μ-opioid receptor [2] (setting [4]) amounted to 71 ± 2%; on κ opioid receptor (setting [8]), 72.3 ± 4.67%.
For `COc1ccc(CCN[C@H]2[C@H]3Cc4ccc(O)cc4[C@]2(C)CCN3C)cc1` [Compound 100, (2R,6S,11R)-11-((4-methoxyphenethyl)amino)-3,6-dimethyl-1,2,3,4,5,6-hexahydro-2,6-methanobenzo[d]azocin-8-ol], the EC50 at μ-opioid receptor [2] (setting [3]) was 0.04 ± 0.00325 µM; on κ opioid receptor (setting [5]) it was 1760 ± 364 nM. In addition, the Emax on μ-opioid receptor [2] (setting [4]) came out at 102 ± 1.45%; at κ opioid receptor (setting [8]), 45 ± 2.08%.
As for `CN1CC[C@@]2(C)c3cc(O)ccc3C[C@@H]1[C@@H]2NCCc1ccc(F)cc1` [Compound 101, (2R,6S,11R)-11-((4-fluorophenethyl)amino)-3,6-dimethyl-1,2,3,4,5,6-hexahydro-2,6-methanobenzo[d]azocin-8-ol], the 50% effective concentration (EC50) at μ-opioid receptor [2] (GTPγS μ EC50, U-2 OS cells) was determined as 0.00373 ± 0.00021 µM; on κ opioid receptor, 1080 ± 113 nM. Besides, the Emax at κ opioid receptor (setting [8]) is 66.7 ± 1.2%.
Consider `C[C@]12CCN(CC3CC3)[C@H](Cc3ccc(O)cc31)[C@H]2NCC1CCNCC1` [Compound 102, (2R,6S,11S)-3-(cyclopropylmethyl)-6-methyl-11-((piperidin-4-ylmethyl)amino)-1,2,3,4,5,6-hexahydro-2,6-methanobenzo[d]azocin-8-ol], for which the EC50 at μ-opioid receptor [2] (setting [6]) was greater than 20 µM; at κ opioid receptor (setting [7]) it was greater than 20000 nM. In addition, the Emax is 2.5% on μ-opioid receptor [2] (setting [4]) and -1% on κ opioid receptor (setting [8]).
As to `CN1CC[C@@]2(C)c3cc(O)ccc3C[C@@H]1[C@H]2NCCc1ccncc1` [Compound 103, (2R,6S,11S)-3,6-dimethyl-11-((2-(pyridin-4-yl)ethyl)amino)-1,2,3,4,5,6-hexahydro-2,6-methanobenzo[d]azocin-8-ol], the concentration for a half-maximal effect (EC50) at μ-opioid receptor [2] (setting [3]) was 0.117 ± 0.00282 µM; at κ opioid receptor (setting [5]), 287 ± 62 nM. In addition, the Emax came out at 77.5 ± 1.26% on μ-opioid receptor [2] (setting [4]) and 83 ± 8.02% at κ opioid receptor (setting [8]).
Turning to `CN1CC[C@@]2(C)c3cc(O)ccc3C[C@@H]1[C@@H]2NCCc1cccs1` [Compound 104, (2R,6S,11R)-3,6-dimethyl-11-((2-(thiophen-2-yl)ethyl)amino)-1,2,3,4,5,6-hexahydro-2,6-methanobenzo[d]azocin-8-ol], the half-maximal effective concentration (EC50) on μ-opioid receptor [2] (setting [3]) is 0.0513 ± 0.00526 µM; at κ opioid receptor (setting [5]), 1260 ± 229 nM. The Emax at μ-opioid receptor [2] (setting [4]) worked out at 105.3 ± 0.88%; at κ opioid receptor (setting [8]), 79.7 ± 5.9%.
For the compound `CN1CC[C@@]2(C)c3cc(O)ccc3C[C@@H]1[C@H]2NCCc1ccc(C(C)(C)C)cc1` [Compound 105, (2R,6S,11S)-11-((4-(tert-butyl)phenethyl)amino)-3,6-dimethyl-1,2,3,4,5,6-hexahydro-2,6-methanobenzo[d]azocin-8-ol], the EC50 on μ-opioid receptor [2] (setting [3]) was 0.00022 ± 5.2e-05 µM; on κ opioid receptor (setting [7]), greater than 20000 nM. Also, the Emax on μ-opioid receptor [2] (setting [4]) was determined as 32.7 ± 1.76%; at κ opioid receptor (setting [8]), 1%.
With `CN1CC[C@@]2(C)c3cc(O)ccc3C[C@@H]1[C@H]2NCC1CCN(C(=O)OC(C)(C)C)CC1` [Compound 106, tert-butyl 4-((((2R,6S,11S)-8-hydroxy-3,6-dimethyl-1,2,3,4,5,6-hexahydro-2,6-methanobenzo[d]azocin-11-yl)amino)methyl)piperidine-1-carboxylate], the EC50 on μ-opioid receptor [2] (GTPγS μ EC50, U-2 OS cells, bound in μM) is greater than 20 µM; on κ opioid receptor, greater than 20000 nM. Besides, the Emax stood at 2.5% at μ-opioid receptor [2] (read-out: GTPγS μ Emax, U-2 OS cells) and 1% at κ opioid receptor.
On to `CN1CC[C@@]2(C)c3cc(O)ccc3C[C@@H]1[C@@H]2NCC1CCN(C(=O)OC(C)(C)C)CC1` [Compound 107, tert-butyl 4-((((2R,6S,11R)-8-hydroxy-3,6-dimethyl-1,2,3,4,5,6-hexahydro-2,6-methanobenzo[d]azocin-11-yl)amino)methyl)piperidine-1-carboxylate], for which the EC50 was 0.0462 ± 0.00035 µM at μ-opioid receptor [2] (setting [3]) and greater than 20000 nM on κ opioid receptor (setting [7]). Moreover, the “GTPγS μ Emax” value on μ-opioid receptor [2] (U-2 OS cells) was determined as 58.30 ± 0.33%. Further, the Emax on κ opioid receptor (setting [8]) stood at 1%.
Take `CN1CC[C@@]2(C)c3cc(O)ccc3C[C@@H]1[C@@H]2N(C)CC1CCN(C(=O)OC(C)(C)C)CC1` [Compound 108, tert-butyl 4-((((2R,6S,11R)-8-hydroxy-3,6-dimethyl-1,2,3,4,5,6-hexahydro-2,6-methanobenzo[d]azocin-11-yl)(methyl)amino)methyl)piperidine-1-carboxylate]: the concentration for a half-maximal effect (EC50) on μ-opioid receptor [2] (setting [3]) is 0.00039 ± 0.00011 µM; at κ opioid receptor (setting [5]), 3.27 ± 0.69 nM. Besides, the “GTPγS μ Emax” value at μ-opioid receptor [2] (U-2 OS cells) was 80.80 ± 2.50%. Moreover, the Emax on κ opioid receptor (setting [8]) is 18.8 ± 1.25%.
Regarding `CN1CC[C@@]2(C)c3cc(O)ccc3C[C@@H]1[C@H]2N(C)CCc1ccc(S(N)(=O)=O)cc1` [Compound 109, 4-(2-(((2R,6S,11S)-8-hydroxy-3,6-dimethyl-1,2,3,4,5,6-hexahydro-2,6-methanobenzo[d]azocin-11-yl)(methyl)amino)ethyl)benzenesulfonamide], the figures for the EC50 on μ-opioid receptor [2] (setting [3]) and on κ opioid receptor (setting [5]) were 0.029 ± 0.00136 µM and 192 ± 41.6 nM, respectively. For the same compound, the Emax at μ-opioid receptor [2] (setting [4]) is 100 ± 3.18%; on κ opioid receptor (setting [8]) it was 36.7 ± 0.67%.
As to `CN1CC[C@@]2(C)c3cc(O)ccc3C[C@@H]1[C@H]2NCCc1c[nH]c2ccccc12` [Compound 110, (2R,6S,11S)-11-((2-(1H-indol-3-yl)ethyl)amino)-3,6-dimethyl-1,2,3,4,5,6-hexahydro-2,6-methanobenzo[d]azocin-8-ol], the figures for the 50% effective concentration (EC50) on μ-opioid receptor [2] (setting [3]) and at κ opioid receptor (setting [5]) were 0.0116 ± 0.00155 µM and 25.4 ± 3.38 nM, respectively. For the same compound, the Emax at μ-opioid receptor [2] (setting [4]) was determined as 92.3 ± 2.03%; at κ opioid receptor (setting [8]), 37.7 ± 2.03%.
As to `CN1CC[C@@]2(C)c3cc(O)ccc3C[C@@H]1[C@H]2NCCCNC(=O)OC(C)(C)C` [Compound 111, tert-butyl (3-(((2R,6S,11S)-8-hydroxy-3,6-dimethyl-1,2,3,4,5,6-hexahydro-2,6-methanobenzo[d]azocin-11-yl)amino)propyl)carbamate], the figures for the EC50 at μ-opioid receptor [2] (setting [3]) and on κ opioid receptor (setting [5]) were 0.00223 ± 0.00012 µM and 42.6 ± 7.64 nM, respectively. For the same compound, the Emax on μ-opioid receptor [2] (setting [4]) was found to be 64 ± 4%; on κ opioid receptor (setting [8]), 22.7 ± 2.33%.
Take `CN1CC[C@@]2(C)c3cc(O)ccc3C[C@@H]1[C@H]2NCCNC(=O)OC(C)(C)C` [Compound 112, tert-butyl (2-(((2R,6S,11S)-8-hydroxy-3,6-dimethyl-1,2,3,4,5,6-hexahydro-2,6-methanobenzo[d]azocin-11-yl)amino)ethyl)carbamate]: the EC50 amounted to 0.00756 ± 0.00045 µM on μ-opioid receptor [2] (setting [3]) and 23.4 ± 7.81 nM on κ opioid receptor (setting [5]). Moreover, the Emax at μ-opioid receptor [2] (setting [4]) is 83.7 ± 1.45%; at κ opioid receptor (setting [8]), 26.3 ± 0.88%.
`C[C@]12CCN(CC3CC3)[C@H](Cc3ccc(O)cc31)[C@H]2NC(=O)c1ccsc1` [Compound 113, N-((2R,6S,11S)-3-(cyclopropylmethyl)-8-hydroxy-6-methyl-1,2,3,4,5,6-hexahydro-2,6-methanobenzo[d]azocin-11-yl)thiophene-3-carboxamide]: the EC50 was found to be 0.00045 ± 3.6e-05 µM at μ-opioid receptor [2] (setting [3]) and 0.052 ± 0.013 nM on κ opioid receptor (setting [5]). The Emax at μ-opioid receptor [2] (setting [4]) is 68.7 ± 3.71%; on κ opioid receptor (setting [8]), 99.2 ± 1.65%.
`CN(C(=O)c1ccsc1)[C@@H]1[C@H]2Cc3ccc(O)cc3[C@]1(C)CCN2CC1CC1` [Compound 114, N-((2R,6S,11S)-3-(cyclopropylmethyl)-8-hydroxy-6-methyl-1,2,3,4,5,6-hexahydro-2,6-methanobenzo[d]azocin-11-yl)-N-methylthiophene-3-carboxamide]: the concentration giving a half-maximal response (EC50) on μ-opioid receptor [2] (setting [3]) was 0.152 ± 0.0168 µM; at κ opioid receptor (setting [5]), 18.9 ± 2.01 nM. The Emax came to 20.7 ± 0.67% at μ-opioid receptor [2] (setting [4]) and 107 ± 4.36% at κ opioid receptor (setting [8]).
For `CN(C(=O)c1ccccc1)[C@@H]1[C@H]2Cc3ccc(O)cc3[C@]1(C)CCN2CC1CC1` [Compound 115, N-((2R,6S,11S)-3-(cyclopropylmethyl)-8-hydroxy-6-methyl-1,2,3,4,5,6-hexahydro-2,6-methanobenzo[d]azocin-11-yl)-N-methylbenzamide], in that order: 0.159 ± 0.0154 µM, 53.4 ± 7.28 nM, 37.7 ± 1.67% and 76 ± 6.66%.

The values above are taken from patent US10138207B2, “Benzomorphan analogs and the use thereof” (priority 2012, dated 2018).
